Measured values from ChEMBL document CHEMBL3992552, “Mechanisms of action and structure-activity relationships of cytotoxic flavokawain derivatives” (Bioorg Med Chem, 2017).
The source made the active and inactive calls. No cut-off for these calls is given here.

Key:
[1] = system: Huh-7; test: Cytotoxicity against human HuH7 cells assessed as cell survival at 50 uM after 48 hrs by Hoechst 33342 staining based assay relative to control; assay type: functional; settings: Huh-7, 48 h, read-out: Survival
[2] = system: Caco-2; test: Cytotoxicity against human Caco2 cells assessed as cell survival at 50 uM after 48 hrs by Hoechst 33342 staining based assay relative to control; assay type: functional; settings: Caco-2, 48 h, read-out: Survival
[3] = Cytotoxicity against human fibroblasts assessed as cell survival at 50 uM after 48 hrs by Hoechst 33342 staining based assay relative to control; design: species or system Fibroblast; settings: read-out: Survival
[4] = system: Caco-2; test: Cytotoxicity against human Caco2 cells assessed as cell viability after 48 hrs by Hoechst 33342 staining based assay; assay type: functional; settings: Caco-2, 48 h
[5] = system: PC-3; test: Cytotoxicity against human PC3 cells assessed as cell viability after 48 hrs by Hoechst 33342 staining based assay; assay type: functional; settings: PC-3, 48 h
[6] = system: NCI-H727; test: Cytotoxicity against human NCI-H727 cells assessed as cell viability after 48 hrs by Hoechst 33342 staining based assay; assay type: functional; settings: NCI-H727, 48 h
[7] = Selectivity index, ratio of IC50 for human fibroblasts to IC50 for human MDA-MB-231 cells
[8] = Selectivity index, ratio of IC50 for human fibroblasts to IC50 for human HCT116 cells
[9] = Selectivity index, ratio of IC50 for human fibroblasts to IC50 for human NCI-H727 cells
[10] = Selectivity index, ratio of IC50 for human fibroblasts to IC50 for human HaCaT cells
[11] = Selectivity index, ratio of IC50 for human fibroblasts to IC50 for human MCF7 cells
[12] = system: HCT-116; test: Induction of apoptosis in human HCT116 cells harboring wild-type p53 assessed as increase in early apoptosis at 2 times IC50 after 48 hrs by YoPro/propidium iodide/Hoechst staining based assay; assay type: functional, cell-based
[13] = system: HCT-116; test: Induction of apoptosis in human HCT116 cells harboring wild-type p53 assessed as increase in late apoptosis at 2 times IC50 after 48 hrs by YoPro/propidium iodide/Hoechst staining based assay; assay type: functional, cell-based
[14] = system: PC-3; test: Induction of apoptosis in human PC3 cells harboring p53 mutant assessed as increase in early apoptosis at 2 times IC50 after 48 hrs by YoPro/propidium iodide/Hoechst staining based assay; assay type: functional, cell-based
[15] = system: PC-3; test: Induction of apoptosis in human PC3 cells harboring p53 mutant assessed as increase in late apoptosis at 2 times IC50 after 48 hrs by YoPro/propidium iodide/Hoechst staining based assay; assay type: functional, cell-based
[16] = system: MDA-MB-231; test: Induction of apoptosis in human MDA-MB-231 cells harboring p53 mutant assessed as increase in early apoptosis at 2 times IC50 after 24 hrs by YoPro/propidium iodide/Hoechst staining based assay; assay type: functional, cell-based
[17] = system: MCF7; test: Induction of apoptosis in human MCF7 cells harboring wild-type p53 assessed as increase in early apoptosis at 2 times IC50 after 24 hrs by YoPro/propidium iodide/Hoechst staining based assay; assay type: functional, cell-based
[18] = system: MCF7; test: Induction of apoptosis in human MCF7 cells harboring wild-type p53 assessed as increase in late apoptosis at 2 times IC50 after 24 hrs by YoPro/propidium iodide/Hoechst staining based assay; assay type: functional, cell-based
[19] = system: HCT-116; test: Induction of apoptosis in human HCT116 cells harboring wild-type p53 assessed as increase in cleaved caspase3 at 2 times IC50 after 48 hrs by Hoechst staining based assay; assay type: functional, cell-based
[20] = system: MDA-MB-231; test: Induction of apoptosis in human MDA-MB-231 cells harboring p53 mutant assessed as increase in cleaved caspase3 at 2 times IC50 after 24 hrs by Hoechst staining based assay; assay type: functional, cell-based
[21] = system: Huh-7; test: Cell cycle arrest in human HuH7 cells assessed as accumulation at S phase at 10 uM measured after 48 hrs by Hoechst/BrdU staining based fluorescence assay (reference value: 44%); assay type: functional
[22] = system: Caco-2; test: Cell cycle arrest in human Caco2 cells assessed as mitotic index at 10 uM measured after 48 hrs by Hoechst staining based fluorescence assay (reference value: 3.6); assay type: functional
[23] = system: HCT-116; test: Cell cycle arrest in human HCT116 cells harboring wild-type p53 assessed as mitotic index at 10 uM measured after 48 hrs by Hoechst staining based fluorescence assay (reference value: 2.3); assay type: functional
[24] = system: PC-3; test: Cell cycle arrest in human PC3 cells harboring p53 mutant assessed as mitotic index at 10 uM measured after 48 hrs by Hoechst staining based fluorescence assay (reference value: 2.5); assay type: functional
[25] = system: PC-3; test: Cell cycle arrest in human PC3 cells harboring p53 mutant assessed as accumulation at S phase at 10 uM measured after 48 hrs by Hoechst/BrdU staining based fluorescence assay (reference value: 40.8%); assay type: functional
[26] = system: NCI-H727; test: Cell cycle arrest in human NCI-H727 cells harboring p53 mutant assessed as mitotic index at 10 uM measured after 48 hrs by Hoechst staining based fluorescence assay (reference value: 1.1); assay type: functional
[27] = system: Huh-7; test: Cell cycle arrest in human HuH7 cells assessed as mitotic index at 25 uM measured after 48 hrs by Hoechst staining based fluorescence assay (reference value: 2.2); assay type: functional
[28] = system: Huh-7; test: Cell cycle arrest in human HuH7 cells assessed as accumulation at S phase at 25 uM measured after 48 hrs by Hoechst/BrdU staining based fluorescence assay (reference value: 44%); assay type: functional
[29] = system: Caco-2; test: Cell cycle arrest in human Caco2 cells assessed as mitotic index at 25 uM measured after 48 hrs by Hoechst staining based fluorescence assay (reference value: 3.6); assay type: functional
[30] = system: MDA-MB-231; test: Cell cycle arrest in human MDA-MB-231 cells harboring p53 mutant assessed as mitotic index at 25 uM measured after 48 hrs by Hoechst staining based fluorescence assay (reference value: 2.1); assay type: functional
[31] = system: MDA-MB-231; test: Cell cycle arrest in human MDA-MB-231 cells harboring p53 mutant assessed as accumulation at S phase at 25 uM measured after 48 hrs by Hoechst/BrdU staining based fluorescence assay (reference value: 42.2%); assay type: functional
[32] = system: HaCaT; test: Cell cycle arrest in human HaCaT cells harboring […] p53 assessed as mitotic index at 25 uM measured after 48 hrs by Hoechst staining based fluorescence assay (reference value: 2.6); assay type: functional
[33] = system: HaCaT; test: Cell cycle arrest in human HaCaT cells harboring […] p53 assessed as accumulation at S phase at 25 uM measured after 48 hrs by Hoechst/BrdU staining based fluorescence assay (reference value: 52.3%); assay type: functional
[34] = system: MDA-MB-231; test: Cell cycle arrest in human MDA-MB-231 cells assessed as accumulation at M phase by Hoechst staining based fluorescence assay; assay type: functional
[35] = system: HCT-116; test: Cell cycle arrest in human HCT116 cells assessed as accumulation at G1/S phase by Hoechst staining based fluorescence assay; assay type: functional
[36] = system: PC-3; test: Cell cycle arrest in human PC3 cells assessed as accumulation at M phase by Hoechst staining based fluorescence assay; assay type: functional
[37] = system: MCF7; test: Induction of apoptosis in human MCF7 cells harboring wild-type p53 assessed as upregulation of cyclinB1 measured after 18 hrs by Hoechst staining based assay; assay type: functional, cell-based
[38] = system: PC-3; test: Induction of apoptosis in human PC3 cells harboring p53 mutant assessed as upregulation of cyclinB1 after 48 hrs by Hoechst staining based assay; assay type: functional, cell-based
[39] = system: MDA-MB-231; test: Induction of apoptosis in human MDA-MB-231 cells harboring p53 mutant assessed as upregulation of cyclinB1 after 18 hrs by Hoechst staining based assay; assay type: functional, cell-based

Row | Structure (SMILES) | viability at 50 µM [1] [%] | viability at 50 µM [2] [%] | viability at 48 h, 50 µM [3] [%] | IC50 [4] [µM] | IC50 [5] [µM] | IC50 [6] [µM] | Ratio IC50 [7] | Ratio IC50 [8] | Ratio IC50 [9] | Ratio IC50 [10] | Ratio IC50 [11] | Activity [12] | Activity [13] | Activity [14] | Activity [15] | Activity [16] | Activity [17] | Activity [18] | Activity [19] | Activity [20] | also measured
1 | COc1cc(OC)c(C(=O)/C=C/c2ccc(F)cc2)c(OC)c1 | 8 | 3 | 78 | 5.5 | 5.5 | 5.5 | >4.7 | >8.1 | >9.1 | >6.6 | >6.5 | Active | Active | Active | Active | Active | Active | Active | Active | Active | Activity [21]: 44%; Activity_index [22]: 32; Activity_index [23]: 1.3; Activity_index [24]: 14.6; Activity [25]: 27%; Activity_index [26]: 1.1; Activity_index [27]: 1.3; Activity [28]: 1.1%; Activity_index [29]: 4.2; Activity_index [30]: 4.8; Activity [31]: 10%; Activity_index [32]: 0; Activity [33]: 0.4%; Activity [34]: Active; Activity [35]: Active; Activity [36]: Active; Activity [37]: Active; Activity [38]: Active; Activity [39]: Active
2 | COc1cccc(/C=C/C(=O)c2c(O)cc(OC)cc2OC)c1 | 13 | 1 | 44 | 11.2 | 7.3 | 14.8 | 2 | 3.5 | 1.8 | 2.6 | 2.6 | Active | Active | Active | Active | Active | Active | Active | Active | Active | Activity [21]: 56%; Activity_index [22]: 14.4; Activity_index [23]: 1.2; Activity_index [24]: 4.4; Activity [25]: 39%; Activity_index [26]: 1.2; Activity_index [27]: 0.1; Activity [28]: 8.5%; Activity_index [29]: 6.1; Activity_index [30]: 3.6; Activity [31]: 38%; Activity_index [32]: 0.1; Activity [33]: 8%; Activity [34]: Active; Activity [35]: Active; Activity [36]: Active; Activity [37]: Active; Activity [38]: Active; Activity [39]: Active
3 | COc1cc(OC)c(C(=O)/C=C/c2ccc(Br)cc2)c(OC)c1 | 3 | 0 | 57 | 6.8 | 7.1 | 11.3 | >4.5 | >8.1 | >4.4 | >5.6 | >5.3 | Active | Active | Active | Active | Active | Active | Active | Active | Active | Activity [21]: 46%; Activity_index [22]: 30.7; Activity_index [23]: 2.8; Activity_index [24]: 2.5; Activity [25]: 35%; Activity_index [26]: 1; Activity_index [27]: 0.1; Activity [28]: 0.2%; Activity_index [29]: 1.4; Activity_index [30]: 3.4; Activity [31]: 44%; Activity_index [32]: 0; Activity [33]: 0.3%; Activity [34]: Active; Activity [35]: Active; Activity [36]: Active; Activity [37]: Active; Activity [38]: Active; Activity [39]: Active
